Square brackets hold non-standard residues; d marks the D form. Ends that are not written are not given here. Lys(Me3) = C[N+](C)(C)CCCC[C@H](N)C(=O)O

One test has as its system KDM5D. The test is described as follows: LC-MS demethylation activity assay, KDM5D. The class given is biochemical, human. Conditions: 2 μM KDM, 10 μM H1/H3 peptide, 10 μM FAS, 100 μM LAA, 20 μM 2OG, 50 mM HEPES pH 7.5, 2 h, room temperature, T (tri-) initial methylation state. The method, boiled down: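 His6-tagged recombinant catalytic domains (2.0 μM) were used: KDM4A M1–L359, KDM4D M1–L359 and KDM3C L2157–L2500 from E. coli, and KDM5D M1–D775 from Sf9. Each acted on 10 μM H1 peptide in 50 mM HEPES pH 7.5 with 10 μM Fe(II), 100 μM ascorbate and 20 μM 2OG for 2 h at room temperature. Reactions were formic acid-quenched and analysed by LC-MS.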

The next test concerns KDM3B. The experiment in a line: LC-MS demethylation activity assay, KDM3B. It counts as biochemical, human. Conditions: 2 μM KDM, 10 μM H1/H3 peptide, 10 μM FAS, 100 μM LAA, 20 μM 2OG, 50 mM HEPES pH 7.5, 2 h, room temperature, T (tri-) initial methylation state. The method, boiled down: (§1)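 H1 isoform peptides (10 μM) were incubated 2 h at room temperature with 2 μM recombinant N-terminally His6-tagged catalytic domains in 50 mM HEPES pH 7.5 containing FAS (10 μM), ascorbate (100 μM) and 2OG (20 μM). Reactions were quenched with formic acid (1% final), and demethylation was analysed by LC-MS (Q-TOF).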

The next test deals with KDM6B. The experiment in a line: LC-MS demethylation activity assay, KDM6B. The class given is biochemical, human. Conditions: 2 μM KDM, 10 μM H1/H3 peptide, 10 μM FAS, 100 μM LAA, 20 μM 2OG, 50 mM HEPES pH 7.5, 2 h, room temperature, T (tri-) initial methylation state. The method, boiled down: as §1
The next test addresses T1, KDM4E (Homo sapiens, UniProt B2RXH2).
T1 construct: KDM4DM1-L359,[39]; KDM4EM1-R336,[30]; His6 (N); made in house; host or cells: Escherichia coli
T1 sequence (B2RXH2 1-336): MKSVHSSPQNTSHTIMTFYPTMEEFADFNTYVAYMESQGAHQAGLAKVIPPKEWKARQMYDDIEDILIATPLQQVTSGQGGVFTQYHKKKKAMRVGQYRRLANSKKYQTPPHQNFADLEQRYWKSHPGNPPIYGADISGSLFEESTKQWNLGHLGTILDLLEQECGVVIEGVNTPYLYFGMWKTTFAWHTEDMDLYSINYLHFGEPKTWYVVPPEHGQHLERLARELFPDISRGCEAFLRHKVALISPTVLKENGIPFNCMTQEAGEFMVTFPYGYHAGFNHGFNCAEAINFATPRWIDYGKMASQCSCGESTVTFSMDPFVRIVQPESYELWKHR
The experiment in a line: LC-MS demethylation activity assay, KDM4E. The class given is biochemical. The settings on record: room temperature; for substrate conversion (demethylation) by KDM4E / di-methylated product formed by KDM4E / mono-methylated product formed by KDM4E: 2 μM KDM4E, 10 μM peptide; for substrate conversion (demethylation) by KDM4E / KDM4E demethylation activity, T: 10 μM FAS, 100 μM LAA, 20 μM 2OG; for substrate conversion (demethylation) by KDM4E: HEPES pH 7.5, 2 h; for di-methylated product formed by KDM4E / mono-methylated product formed by KDM4E: standard conditions, 2 h; for KDM4E demethylation activity, T: 2 μM KDM, 10 μM H1/H3 peptide, 50 mM HEPES pH 7.5, 2 h, T (tri-) initial methylation state. The method, boiled down: as §1

For “KKKAAK[Lys(Me3)]AGGTPRKA [Peptide H1.2K26me3, 15-mer linker histone H1.2 residues 20-34 peptide, tri-methylated K26]”, in the test with KDM5D, the “KDM5D demethylation activity, T” value is “● [red]”. Moreover, the “KDM3B demethylation activity, T” value in the test with KDM3B is “● [red]”. For the same substance, in the test with KDM6B, the “KDM6B demethylation activity, T” value was “● [red]”. Further, at KDM4E, the “substrate conversion (demethylation) by KDM4E” value (“substrate conversion” below) is recorded as approximately 80%; the “di-methylated product formed by KDM4E” value was approximately 50%; the “mono-methylated product formed by KDM4E” value is approximately 30%; the “KDM4E demethylation activity, T” value was “● [green] (green dots indicate good demethylation (>50% conversion))”.
As to “KKKAA[Lys(Me3)]KAGGTPRKA [Peptide H1.2K25me3, 15-mer linker histone H1.2 residues 20-34 peptide, tri-methylated K25]”, the “KDM5D demethylation activity, T” value with KDM5D is “● [red]”. In the test on KDM3B, the “KDM3B demethylation activity, T” value was “● [red]”. Moreover, the “KDM6B demethylation activity, T” value with KDM6B was “● [red]”. Also, at KDM4E, the “substrate conversion” value was approximately 80%; the “di-methylated product formed by KDM4E” value is given as approximately 50%; the “mono-methylated product formed by KDM4E” value is listed as approximately 30%; the “KDM4E demethylation activity, T” value is “● [red]”.
Take “KKKAR[Lys(Me3)]SAGAAKRKA [Peptide H1.4K25me3, 15-mer linker histone H1.4 residues 20-34 peptide, tri-methylated K25]”: the “KDM5D demethylation activity, T” value in the test with KDM5D was “● [red]”. Besides, in the test with KDM3B, the “KDM3B demethylation activity, T” value is “● [red]”. Moreover, the “KDM6B demethylation activity, T” value in the test with KDM6B was “● [red]”. On KDM4E, the “substrate conversion” value is recorded as approximately 95%; the “di-methylated product formed by KDM4E” value is approximately 28%; the “mono-methylated product formed by KDM4E” value is on record as approximately 67%; the “KDM4E demethylation activity, T” value is “● [red]”.
On to “KKKATK[Lys(Me3)]AAGAGAAK [Peptide H1.5K26me3, 15-mer linker histone H1.5 residues 20-34 peptide, tri-methylated K26]”, for which the “KDM5D demethylation activity, T” value in the test with KDM5D is “● [red]”. In addition, in the test with KDM3B, the “KDM3B demethylation activity, T” value is “● [red]”. Also, in the test with KDM6B, the “KDM6B demethylation activity, T” value is “● [red]”. Also, on KDM4E, the “di-methylated product formed by KDM4E” value is recorded as approximately 40%; the “mono-methylated product formed by KDM4E” value is listed as approximately 16%; the “KDM4E demethylation activity, T” value is “● [green] (green dots indicate good demethylation (>50% conversion))”.
With “KKKA[Lys(Me3)]KAGATAGKRK [Peptide H1.3K24me3, 15-mer linker histone H1.3 residues 20-34 peptide, tri-methylated K24]”, the “KDM5D demethylation activity, T” value in the test on KDM5D was “● [red]”. For the same substance, in the test on KDM3B, the “KDM3B demethylation activity, T” value was “● [red]”. In addition, the “KDM6B demethylation activity, T” value in the test on KDM6B is “● [red]”. Moreover, on KDM4E, the “substrate conversion” value is on record as approximately 80%; the “di-methylated product formed by KDM4E” value is reported as approximately 42%; the “mono-methylated product formed by KDM4E” value is approximately 38%; the “KDM4E demethylation activity, T” value is “● [green] (green dots indicate good demethylation (>50% conversion))”.

The values are drawn from paper PMC12363342, “Investigating the N-terminal linker histone H1 subtypes as substrates for JmjC lysine demethylases” (RSC Chemical Biology, 2025).
